Measured values reported in patent US20260062387A1, “SALT-INDUCIBLE KINASE INHIBITOR COMPOUND AND PHARMACEUTICAL COMPOSITION INCLUDING THE SAME” (MITSUBISHI TANABE PHARMA CORPORATION, priority 2023, published 2026).

Columns and labels:
Assay type in all cases: biochemical
[1] = target: GST-tagged SIK1 (Homo sapiens (Human), UniProt P57059); test: SIK1 inhibition test (ADP-Glo Max Assay); details: enzyme 20 nM, AMARA Peptide 200 μM, ATP 1 mM, 2 hours room temperature
Method in brief: (§1)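 ADP formed was detected by luciferase luminescence after a 2 h room-temperature reaction with 1 mM ATP, 5 mM MgCl2 and AMARA peptide at 200 μM (SIK1, SIK2) or 100 μM (SIK3). Final GST-enzyme levels were 20 nM SIK1, 3 nM SIK2 and 100 nM SIK3. IC50 came from 16-point concentration-response data.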

[2] = target: GST-tagged SIK2 (Homo sapiens (Human), UniProt Q9H0K1); test: SIK2 inhibition test (ADP-Glo Max Assay); details: enzyme 3 nM, AMARA Peptide 200 μM, ATP 1 mM, 2 hours room temperature
Method in brief: as §1

[3] = target: GST-tagged SIK3 (Homo sapiens (Human), UniProt Q9Y2K2); test: SIK3 inhibition test (ADP-Glo Max Assay); details: enzyme 100 nM, AMARA Peptide 100 μM, ATP 1 mM, 2 hours room temperature
Method in brief: as §1

GST-tagged SIK2, sequence (Q9H0K1 whole entry): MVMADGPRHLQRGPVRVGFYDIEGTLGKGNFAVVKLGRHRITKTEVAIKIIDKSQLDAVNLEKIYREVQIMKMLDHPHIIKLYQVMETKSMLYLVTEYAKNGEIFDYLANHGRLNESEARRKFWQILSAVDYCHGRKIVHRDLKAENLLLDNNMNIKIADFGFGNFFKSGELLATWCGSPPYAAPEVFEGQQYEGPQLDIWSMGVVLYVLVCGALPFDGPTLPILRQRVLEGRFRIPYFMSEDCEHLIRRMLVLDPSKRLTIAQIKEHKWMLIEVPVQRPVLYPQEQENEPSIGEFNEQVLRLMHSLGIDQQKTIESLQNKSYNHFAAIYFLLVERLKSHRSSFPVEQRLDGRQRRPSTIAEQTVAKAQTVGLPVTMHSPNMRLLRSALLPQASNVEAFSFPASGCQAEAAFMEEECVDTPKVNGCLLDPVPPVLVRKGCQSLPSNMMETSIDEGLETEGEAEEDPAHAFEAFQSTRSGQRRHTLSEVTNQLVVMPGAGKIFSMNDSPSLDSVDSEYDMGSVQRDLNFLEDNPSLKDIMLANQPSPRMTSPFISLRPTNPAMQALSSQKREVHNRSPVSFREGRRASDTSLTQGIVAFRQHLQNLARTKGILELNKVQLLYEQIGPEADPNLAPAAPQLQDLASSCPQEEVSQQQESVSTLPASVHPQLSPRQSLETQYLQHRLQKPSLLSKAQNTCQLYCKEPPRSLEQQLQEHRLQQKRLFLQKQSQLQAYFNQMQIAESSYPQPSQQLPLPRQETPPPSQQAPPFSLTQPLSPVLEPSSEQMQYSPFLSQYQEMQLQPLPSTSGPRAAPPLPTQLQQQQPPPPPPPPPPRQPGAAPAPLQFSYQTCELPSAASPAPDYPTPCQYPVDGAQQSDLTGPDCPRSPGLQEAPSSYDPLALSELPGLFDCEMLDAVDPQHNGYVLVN
GST-tagged SIK3, sequence (Q9Y2K2 whole entry): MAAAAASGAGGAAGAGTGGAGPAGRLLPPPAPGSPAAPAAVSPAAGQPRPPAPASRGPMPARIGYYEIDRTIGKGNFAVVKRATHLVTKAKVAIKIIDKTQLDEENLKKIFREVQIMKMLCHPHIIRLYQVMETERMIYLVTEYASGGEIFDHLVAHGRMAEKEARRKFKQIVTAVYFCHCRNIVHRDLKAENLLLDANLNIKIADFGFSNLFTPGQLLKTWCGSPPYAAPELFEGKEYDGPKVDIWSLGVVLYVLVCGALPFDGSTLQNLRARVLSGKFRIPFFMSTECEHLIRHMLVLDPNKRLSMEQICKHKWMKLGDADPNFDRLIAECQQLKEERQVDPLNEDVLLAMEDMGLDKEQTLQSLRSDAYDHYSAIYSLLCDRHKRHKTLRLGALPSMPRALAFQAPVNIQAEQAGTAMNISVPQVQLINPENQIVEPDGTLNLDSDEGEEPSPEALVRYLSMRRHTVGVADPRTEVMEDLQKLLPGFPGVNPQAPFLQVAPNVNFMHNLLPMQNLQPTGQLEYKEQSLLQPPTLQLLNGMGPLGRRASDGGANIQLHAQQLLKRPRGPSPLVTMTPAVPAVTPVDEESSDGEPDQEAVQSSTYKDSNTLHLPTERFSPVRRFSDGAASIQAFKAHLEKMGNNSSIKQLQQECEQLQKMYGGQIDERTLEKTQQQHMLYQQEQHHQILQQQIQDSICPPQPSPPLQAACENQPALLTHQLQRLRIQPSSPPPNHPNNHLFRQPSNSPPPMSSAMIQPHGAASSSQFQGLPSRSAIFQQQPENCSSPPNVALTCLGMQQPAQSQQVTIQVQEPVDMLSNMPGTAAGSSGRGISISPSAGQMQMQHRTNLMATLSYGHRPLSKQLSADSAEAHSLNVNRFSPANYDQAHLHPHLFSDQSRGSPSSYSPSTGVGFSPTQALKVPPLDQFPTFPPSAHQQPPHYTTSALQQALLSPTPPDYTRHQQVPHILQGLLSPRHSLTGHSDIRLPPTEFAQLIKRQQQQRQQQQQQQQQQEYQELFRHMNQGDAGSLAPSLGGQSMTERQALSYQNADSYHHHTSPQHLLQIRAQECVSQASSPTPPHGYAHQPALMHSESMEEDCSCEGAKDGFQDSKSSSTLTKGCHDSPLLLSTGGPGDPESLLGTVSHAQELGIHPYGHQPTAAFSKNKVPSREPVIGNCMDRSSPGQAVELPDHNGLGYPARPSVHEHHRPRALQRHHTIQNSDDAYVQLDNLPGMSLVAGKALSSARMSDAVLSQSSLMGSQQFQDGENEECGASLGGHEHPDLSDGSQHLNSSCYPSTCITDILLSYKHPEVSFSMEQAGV
GST-tagged SIK1, sequence (P57059 whole entry): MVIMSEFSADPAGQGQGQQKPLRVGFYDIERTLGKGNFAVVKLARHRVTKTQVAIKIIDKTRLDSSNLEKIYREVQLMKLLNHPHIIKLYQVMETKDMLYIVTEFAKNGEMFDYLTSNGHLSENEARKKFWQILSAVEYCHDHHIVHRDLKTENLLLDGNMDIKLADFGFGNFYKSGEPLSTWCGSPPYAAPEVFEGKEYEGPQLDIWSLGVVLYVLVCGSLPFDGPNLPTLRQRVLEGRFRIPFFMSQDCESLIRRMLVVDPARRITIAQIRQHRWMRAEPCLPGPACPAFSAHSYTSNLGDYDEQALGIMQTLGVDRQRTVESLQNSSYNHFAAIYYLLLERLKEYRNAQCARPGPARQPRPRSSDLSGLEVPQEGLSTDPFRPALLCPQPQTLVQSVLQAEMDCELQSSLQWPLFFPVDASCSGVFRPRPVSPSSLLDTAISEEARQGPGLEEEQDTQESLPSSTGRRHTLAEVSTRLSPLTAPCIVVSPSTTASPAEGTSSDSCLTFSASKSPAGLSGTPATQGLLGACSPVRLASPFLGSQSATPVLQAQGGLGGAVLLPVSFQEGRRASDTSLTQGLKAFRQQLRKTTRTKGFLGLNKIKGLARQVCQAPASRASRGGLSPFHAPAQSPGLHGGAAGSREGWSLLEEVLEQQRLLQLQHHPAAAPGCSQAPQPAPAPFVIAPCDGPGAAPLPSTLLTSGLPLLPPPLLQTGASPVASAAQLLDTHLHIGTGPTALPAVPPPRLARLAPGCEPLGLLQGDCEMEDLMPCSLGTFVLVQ

IC50 [1] [nM]	IC50 [2] [nM]	IC50 [3] [nM]	Structure (SMILES)
12.5	15.4	10.2	COc1cc(-c2c3c(C#N)cc(-c4cnn(C)c4)cc3nn2C)cc(OC(F)F)c1C(=O)N1CC(N)(C(F)(F)F)C1 [Example 36, 3-[4-[3-amino-3-(trifluoromethyl)azetidin-1-carbonyl]-3-(difluoromethoxy)-5-methoxyphenyl]-2-methyl-6-(1-methylpyrazol-4-yl)indazole-4-carbonitrile]
7.9	8.3	12.9	COc1cc(-c2c3c(OC)cc(-c4cnn(C)c4)cc3nn2C)cc(OC(F)F)c1C(=O)N1CC(O)(C(F)F)C1 [Example 37, [2-(difluoromethoxy)-6-methoxy-4-[4-methoxy-2-methyl-6-(1-methylpyrazol-4-yl)indazol-3-yl]phenyl]-[3-(difluoromethyl)-3-hydroxyazetidin-1-yl]methanone]
16.8	13.8	10.1	COc1cc(-c2c3c(C(F)F)cc(-c4cnn(C)c4)cc3nn2C)cc(OC(F)F)c1C(=O)N1CC(O)(C(F)F)C1 [Example 38, [2-(difluoromethoxy)-4-[4-(difluoromethyl)-2-methyl-6-(1-methylpyrazol-4-yl)indazol-3-yl]-6-methoxyphenyl]-[3-(difluoromethyl)-3-hydroxyazetidin-1-yl]methanone]
16.2	18.2	9.4	COc1cc(-c2c3c(C#N)cc(-c4cnn(C)c4)cc3nn2C)cc(OC(F)F)c1C(=O)N1CC(C#N)(C(F)F)C1 [Example 39, 3-[4-[3-cyano-3-(difluoromethyl)azetidin-1-carbonyl]-3-(difluoromethoxy)-5-methoxyphenyl]-2-methyl-6-(1-methylpyrazol-4-yl)indazole-4-carbonitrile]
4.9	3.7	2.1	COc1cc(-c2c3c(C#N)cc(/C=C/c4cnn(C)c4)cc3nn2C)cc(OC(F)F)c1C(=O)N[C@@H]1C[C@@H]1F [Example 40, 4-[4-cyano-2-methyl-6-[(E)-2-(1-methylpyrazol-4-yl)ethenyl]indazol-3-yl]-2-(difluoromethoxy)-N-[(1R,2S)-2-fluorocyclopropyl]-6-methoxybenzamide]
1.3	7.6	5.3	COc1cc(-c2c3c(OCC(F)F)cc(-c4cnn(C)c4)cc3nn2C)cc(OC(F)F)c1C(=O)N1CC(O)(C(F)(F)F)C1 [Example 41, [4-[4-(2,2-difluoroethoxy)-2-methyl-6-(1-methylpyrazol-4-yl)indazol-3-yl]-2-(difluoromethoxy)-6-methoxyphenyl]-[3-hydroxy-3-(trifluoromethyl)azetidin-1-yl]methanone]
2	12.8	10.5	CCOc1cc(-c2cnn(C)c2)cc2nn(C)c(-c3cc(OC)c(C(=O)N4CC(O)(C(F)(F)F)C4)c(OC(F)F)c3)c12 [Example 42, [2-(difluoromethoxy)-4-[4-ethoxy-2-methyl-6-(1-methylpyrazol-4-yl)indazol-3-yl]-6-methoxyphenyl]-[3-hydroxy-3-(trifluoromethyl)azetidin-1-yl]methanone]
2.4	19.7	20	COc1cc(-c2c3c(OC(C)C)cc(-c4cnn(C)c4)cc3nn2C)cc(OC(F)F)c1C(=O)N1CC(O)(C(F)(F)F)C1 [Example 43, [2-(difluoromethoxy)-6-methoxy-4-[2-methyl-6-(1-methylpyrazol-4-yl)-4-propan-2-yloxyindazol-3-yl]phenyl]-[3-hydroxy-3-(trifluoromethyl)azetidin-1-yl]methanone]
18.9	8.6	9.4	COc1cc(-c2c3c(OC)cc(-c4cnn(C)c4)cc3nn2C)cc(OC(F)F)c1C(=O)N[C@@H]1CC1(F)F [Example 45, N-[(1R)-2,2-difluorocyclopropyl]-2-(difluoromethoxy)-6-methoxy-4-[4-methoxy-2-methyl-6-(1-methylpyrazol-4-yl)indazol-3-yl]benzamide]
3.5	10.6	11.2	COc1cc(-c2c3c(OCc4cnccn4)cc(-c4cnn(C)c4)cc3nn2C)cc(OC(F)F)c1C(=O)N1CC(O)(C(F)(F)F)C1 [Example 48, [2-(difluoromethoxy)-6-methoxy-4-[2-methyl-6-(1-methylpyrazol-4-yl)-4-(pyrazin-2-ylmethoxy)indazol-3-yl]phenyl]-[3-hydroxy-3-(trifluoromethyl)azetidin-1-yl]methanone]
3.9	11.2	9.7	COc1cc(-c2c3c(OCc4cnc(C)s4)cc(-c4cnn(C)c4)cc3nn2C)cc(OC(F)F)c1C(=O)N1CC(O)(C(F)(F)F)C1 [Example 49, [2-(difluoromethoxy)-6-methoxy-4-[2-methyl-6-(1-methylpyrazol-4-yl)-4-[(2-methyl-1,3-thiazol-5-yl)methoxy]indazol-3-yl]phenyl]-[3-hydroxy-3-(trifluoromethyl)azetidin-1-yl]methanone]
6.8	5	17.1	COc1cc(-c2c3c(OCc4ccc(C)nc4)cc(-c4cnn(C)c4)cc3nn2C)cc(OC(F)F)c1C(=O)N1CC(O)(C(F)(F)F)C1 [Example 50, [2-(difluoromethoxy)-6-methoxy-4-[2-methyl-6-(1-methylpyrazol-4-yl)-4-[(6-methylpyridin-3-yl)methoxy]indazol-3-yl]phenyl]-[3-hydroxy-3-(trifluoromethyl)azetidin-1-yl]methanone]
8.6	8.9	14.1	COc1cc(-c2c3c(OCc4ccnnc4)cc(-c4cnn(C)c4)cc3nn2C)cc(OC(F)F)c1C(=O)N1CC(O)(C(F)(F)F)C1 [Example 51, [2-(difluoromethoxy)-6-methoxy-4-[2-methyl-6-(1-methylpyrazol-4-yl)-4-(pyridazin-4-ylmethoxy)indazol-3-yl]phenyl]-[3-hydroxy-3-(trifluoromethyl)azetidin-1-yl]methanone]
6.2	6	9.2	COc1cc(-c2c3c(OCc4cnn(C)c4)cc(-c4cnn(C)c4)cc3nn2C)cc(OC(F)F)c1C(=O)N1CC(O)(C(F)(F)F)C1 [Example 52, [2-(difluoromethoxy)-6-methoxy-4-[2-methyl-6-(1-methylpyrazol-4-yl)-4-[(1-methylpyrazol-4-yl)methoxy]indazol-3-yl]phenyl]-[3-hydroxy-3-(trifluoromethyl)azetidin-1-yl]methanone]
9.1	7.3	13.6	COc1cc(-c2c3c(OCc4nnc(C)o4)cc(-c4cnn(C)c4)cc3nn2C)cc(OC(F)F)c1C(=O)N1CC(O)(C(F)(F)F)C1 [Example 53, [2-(difluoromethoxy)-6-methoxy-4-[2-methyl-4-[(5-methyl-1,3,4-oxadiazol-2-yl)methoxy]-6-(1-methylpyrazol-4-yl)indazol-3-yl]phenyl]-[3-hydroxy-3-(trifluoromethyl)azetidin-1-yl]methanone]
10.1	3.2	5.1	COc1cc(-c2c3c(C#N)cc(-c4cnn(CCS(C)(=O)=O)c4)cc3nn2C)cc(OC(F)F)c1C(=O)NCC1(F)CC1 [Example 54, 4-[4-cyano-2-methyl-6-[1-(2-methylsulfonylethyl)pyrazol-4-yl]indazol-3-yl]-2-(difluoromethoxy)-N-[(1-fluorocyclopropyl)methyl]-6-methoxybenzamide]
10.4	3.5	2.4	Cn1cc(-c2cc(C#N)c3c(-c4ccc(C(=O)N[C@@H]5CC5(F)F)c(OC(F)F)c4)n(C)nc3c2)cn1 [Example 55, 4-[4-cyano-2-methyl-6-(1-methylpyrazol-4-yl)indazol-3-yl]-N-[(1R)-2,2-difluorocyclopropyl]-2-(difluoromethoxy)benzamide]
20	16.1	11.8	COc1cc(-c2c3c(C#N)cc(-c4cnn(CC(C)(C)O)c4)cc3nn2C)cc(OC(F)F)c1C(=O)NCC1(F)CC1 [Example 56]
16	10	9.2	COc1cc(-c2c3c(C#N)cc(-c4cnn(C[C@@H](C)O)c4)cc3nn2C)cc(OC(F)F)c1C(=O)NCC1(F)CC1 [Example 57, 4-[4-cyano-6-[1-[(2R)-2-hydroxypropyl]pyrazol-4-yl]-2-methylindazol-3-yl]-2-(difluoromethoxy)-N-[(1-fluorocyclopropyl)methyl]-6-methoxybenzamide]

Structure (SMILES)	IC50 [1] [nM]	IC50 [2] [nM]	IC50 [3] [nM]
COc1cc(-c2c3c(OCCCCO)cc(-c4cnn(C)c4)cc3nn2C)cc(OC(F)F)c1C(=O)N1CC(O)(C(F)(F)F)C1 [Example 44, [2-(difluoromethoxy)-4-[4-(4-hydroxybutoxy)-2-methyl-6-(1-methylpyrazol-4-yl)indazol-3-yl]-6-methoxyphenyl]-[3-hydroxy-3-(trifluoromethyl)azetidin-1-yl]methanone]	6.7	8.4	15.5
COc1cc(-c2c3c(OCC[C@H](C)O)cc(-c4cnn(C)c4)cc3nn2C)cc(OC(F)F)c1C(=O)N1CC(O)(C(F)(F)F)C1 [Example 47, [2-(difluoromethoxy)-4-[4-[(3S)-3-hydroxybutoxy]-2-methyl-6-(1-methylpyrazol-4-yl)indazol-3-yl]-6-methoxyphenyl]-[3-hydroxy-3-(trifluoromethyl)azetidin-1-yl]methanone]	9	16.2	19.2
